Experimental data from patent US20260166182A1, “CYANINE-BASED FLUOROPHORES” (The General Hospital Corporation, priority 2022, published 2026).

Experiments:
[1] = Optical properties and NIR-II quantum yield in 5% BSA saline; type: physicochemical
Experimental: Fluorescence Quantum yield measurement and physicochemical properties: The absorption and emission spectra of fluorophores were measured in 5% BSA saline using UV/Vis/NIR spectrometers (USB2000+VIS+NIR+ES and Flame-NIR, Ocean Insight, Dunedin, FL). Fluorescence emission spectra were collected by NIR excitation with an 808-nm laser. To calculate NIR-II fluorescence quantum yield, the following equation was used:
[formula] • where QYsample is the QY of SH1, QYref is the QY of ICG in 30% FBS supplemented with 50 mM HEPES, nsample and nref are the refractive indices of SH1 and ICG solutions which are both water (1.33) in this case. In silico calculations of molecular weight, the distribution coefficient (LogD at pH 7.4), surface molecular charge, polarizability, and 3D molecular surface area were performed using MarvinSketch (ChemAxon, Budapest, Hungary).

LLC cells = assay: Cytotoxicity study (CCK-8 cell proliferation); type: cell-based; conditions: 24 h incubation
Experimental: Cytotoxicity study: 200 μL of cell suspension was added into a 96-well plate to have 5000 cells in each well. The plate was pre-incubated for 24 hours in a humidified incubator for cells to attach on the bottom of the plate. Stock solutions of SH1, IR-780, and DMSO were premixed with the cell culture media (DMEM containing 10% FBS) to 50 μM, and premixed solutions were filtered using a syringe filter ([…]), and then were diluted to final concentrations of 1-25 μM. After cells reached the desired density (40-50% confluency), the existing media was removed and exchanged with the above solutions at certain concentrations. The plate was further incubated for 24 h. The cell proliferation was determined using a CCK-8 Kit.

[2] = tested on: orthotopic lung cancer (LLC cell); assay: Orthotopic lung tumor targeting; type: in vivo, mouse; conditions: 50 nmol, 48 h prior to imaging
Description: General NIR-II fluorescence imaging: A 640×512-pixel InGaAs camera (Ninox640, Raptor Photonics) and macro zoom lens (0-10×; Navitar Zoom 7000 with SWIR coating) along with 900, 1070, 1100, and 1200 nm long-pass (LP) filters from either Thorlab or Edmund optics were used to collect the NIR-II signal. InGaAs camera played a role as an open-air imaging system along with the support of the FLARE system. An 808 nm fiber-coupled diode laser ([…] at the sample) was used as an excitation source. Data acquisition was done using in-house developed software. The mice fur on the region of interest was shaved prior to imaging using a clipper and removed completely using a depilatory cream. 100 μL of SH1 in 5 w/v % BSA saline ([…]) was injected through the tail vein. Mice were imaged with intact skin using InGaAs camera. At least 3 mice were analyzed for each sample. […]
Statistical analysis: The fluorescence and background intensities of a region of interest over each tissue were quantified using customized imaging software and ImageJ v1.48 (National Institutes of Health, Bethesda, MD). The signal-to-background ratio (SBR) was calculated as SBR=fluorescence/background, where background was the fluorescence intensity of muscle. […] The differences among groups were determined using one-way ANOVA analysis to assess the statistical differences among more than two groups. […]

LLC tumor = assay: Quantitative 3D FLECT/CT tumor accumulation; type: in vivo, mouse; conditions: from 24 h to 48 h post-injection
Experimental: Quantitative analysis using InSyTe FLECT/CT: 3D fluorescence images were acquired with the TriFoil Imaging InSyTe FLECT/CT, a commercial preclinical imaging system with full 3D fluorescence tomography imaging capability and an inline CT system. Animals were anesthetized with isoflurane during scans. FLECT scans were performed with 116 projections per slice, 780 nm laser for excitation, and 853/45 bandpass fluorescence emission filter. After data collection, fluorescence images were reconstructed using a proprietary FLECT reconstruction engine. CT scans were performed with 360 projections per slice, 35 kV tube voltage, 950 uA tube current, and 100 ms exposure. CT images were reconstructed using the COBRA filtered back-projection algorithm (Exxim, Computing Corporation, Pleasanton, CA). Quantitative analysis of 3D fluorescence images was performed using the VivoQuant 2020 image analysis software (Invicro, Boston, MA). FLECT and CT images were co-registered in VivoQuant 2020. Volumes-of-interest (VOI) were segmented via intensity thresholding, where the threshold limits were set to the local full-width-half-maximum (FWHM) intensity value for the lower threshold bound and local maximum intensity value for the upper threshold bound.

For `CCCCN1/C(=C/C=C2\CCCC(/C=C/C3=[N+](CCCC)c4ccc(Cl)cc4C3(C)C)=C2Cl)C(C)(C)c2cc(Cl)ccc21` [SH1, 1-butyl-2-((E)-2-((E)-3-(2-((E)-1-butyl-5-chloro-3,3-dimethylindolin-2-ylidene)ethylidene)-2-chlorocyclohex-1-en-1-yl)vinyl)-5-chloro-3,3-dimethyl-3H-indol-1-ium], which “NIR-II tail emission up to” value ([1]; 5% BSA saline) is on record?
Its value is ~1250 nm.

What about the extinction coefficient ([1]; 5% BSA saline) of the same compound?
Its extinction coefficient is 333,600 M^−1 cm^−1.

What about the “fluorescence emission maximum (NIR-I)” value ([1]; 5% BSA saline) of the same compound?
The value was 820 nm.

What about the quantum yield ([1]; 5 w/v % BSA saline) of the same compound?
The quantum yield was 11%.

What about the “brightness in the NIR-II region relative to ICG” value ([1]; 808 nm excitation, 1,070 nm LP) of the same compound?
Its value is 2.2 fold.

What about the “brightness in the NIR-II region relative to IR-780” value ([1]; 808 nm excitation, 1,070 nm LP) of the same compound?
Its value is 1.7 fold.

And the “fluorescence brightness in the NIR-II region compared with ICG” value ([1]; NIR-II region)?
The value was 225%.

What about the “concentration that did not affect cell proliferation” value (LLC cells) of the same compound?
The value was “up to 10 μM”.

And the “TBR against normal tissue” value [2]?
Its value is 47.3.

What about the “TBR against the lung” value [2] of the same compound?
The value was 3.12.

And the “increase of % ID in cancer area” value (LLC tumor)?
The value was “more than 2 fold”.
